Our source for the surviving fraction values is the supplement of paper PMC6045584.

± gives the standard deviation of the averaged measurements.

Compound in one test: CN1CCN(c2nc(C3=C(c4c[nH]c5ccccc45)C(=O)NC3=O)c3ccccc3n2)CC1 [SOTRASTAURIN/AEB071]
Description: surviving fraction relative to DMSO-only wells; higher = less growth inhibition. Particulars: exposure time: 5 days. The essentials: (§1)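 Viability values are CellTiter-Glo luminescence readings, given as surviving fraction against the median of DMSO-only wells. The readings were taken after 10 minutes at room temperature, following five days of continuous exposure to inhibitors at 0.5, 1, 5, 10, 50, 100, 500 and 1000 nM that began 24 hours after log-phase tumour cell lines were seeded at 250–500 cells per well in 384-well plates. Every line was screened three times and kept only if replicate Pearson r >0.7 and median Z' >0.3.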

Compound in a further test: C[C@]12CC[C@H](O)CC1=CC[C@@H]1[C@@H]2CC[C@]2(C)C(c3cccnc3)=CC[C@@H]12 [ABIRATERONE]
Described as above. Particulars: exposure time: 5 days. The essentials:
as §1

PCI30 HEADNECK: the surviving fraction with SOTRASTAURIN/AEB071 (0.5 nM) was found to be 0.958 ± 0.054; with SOTRASTAURIN/AEB071 (1 nM), 0.951 ± 0.062; with SOTRASTAURIN/AEB071 (5 nM) it was 1.07 ± 0.044; with SOTRASTAURIN/AEB071 (10 nM) it was 0.991 ± 0.083; with SOTRASTAURIN/AEB071 (50 nM), 1.05 ± 0.067; with SOTRASTAURIN/AEB071 (100 nM) it was 1.02 ± 0.072. For the same test system, the surviving fraction in the test with SOTRASTAURIN/AEB071 (500 nM) amounted to 1.07 ± 0.093; with SOTRASTAURIN/AEB071 (1000 nM), 1.18 ± 0.1; in the test with ABIRATERONE (0.5 nM), 1.12 ± 0.065; in the test with ABIRATERONE (1 nM), 1.03 ± 0.091; in the test with ABIRATERONE (5 nM), 1.11 ± 0.018; in the test with ABIRATERONE (10 nM) it was 1.12 ± 0.068. Also, the surviving fraction is 1.18 ± 0.071 with ABIRATERONE (50 nM), 1.04 ± 0.013 in the test with ABIRATERONE (100 nM), 1.04 ± 0.11 with ABIRATERONE (500 nM) and 1.03 ± 0.065 with ABIRATERONE (1000 nM).

Regarding SJSA1 BONE, the surviving fraction with SOTRASTAURIN/AEB071 (0.5 nM) was determined as 1.72 ± 0.087; with SOTRASTAURIN/AEB071 (1 nM), 1.64 ± 0.046; with SOTRASTAURIN/AEB071 (5 nM) it was 1.64 ± 0.092; in the test with SOTRASTAURIN/AEB071 (10 nM) it was 1.56 ± 0.13; in the test with SOTRASTAURIN/AEB071 (50 nM) it was 0.992 ± 0.068; with SOTRASTAURIN/AEB071 (100 nM), 1.13 ± 0.029. For the same test system, the surviving fraction amounted to 1.7 ± 0.041 with SOTRASTAURIN/AEB071 (500 nM); 0.205 ± 0.018 in the test with SOTRASTAURIN/AEB071 (1000 nM); 1.04 ± 0.051 in the test with ABIRATERONE (0.5 nM); 1.09 ± 0.086 with ABIRATERONE (1 nM); 1.13 ± 0.032 with ABIRATERONE (5 nM); 1.1 ± 0.026 in the test with ABIRATERONE (10 nM). Also, the surviving fraction is 1.11 ± 0.037 with ABIRATERONE (50 nM), 1.15 ± 0.031 with ABIRATERONE (100 nM), 1.1 ± 0.015 with ABIRATERONE (500 nM) and 1.04 ± 0.073 with ABIRATERONE (1000 nM).

Regarding MDAMB157 BREAST, the surviving fraction was 0.923 ± 0.041 with SOTRASTAURIN/AEB071 (0.5 nM); 1 ± 0.048 with SOTRASTAURIN/AEB071 (1 nM); 1.07 ± 0.12 with SOTRASTAURIN/AEB071 (5 nM); 1.04 ± 0.091 with SOTRASTAURIN/AEB071 (10 nM); 1.01 ± 0.03 with SOTRASTAURIN/AEB071 (50 nM); 0.971 ± 0.13 in the test with SOTRASTAURIN/AEB071 (100 nM). Also, the surviving fraction in the test with SOTRASTAURIN/AEB071 (500 nM) came to 0.919 ± 0.053; with SOTRASTAURIN/AEB071 (1000 nM), 0.936 ± 0.031; in the test with ABIRATERONE (0.5 nM), 0.85 ± 0.017; with ABIRATERONE (1 nM), 0.892 ± 0.1; with ABIRATERONE (5 nM) it was 0.912 ± 0.081; with ABIRATERONE (10 nM) it was 1.12 ± 0.1. Moreover, the surviving fraction with ABIRATERONE (50 nM) stood at 1.01 ± 0.092; with ABIRATERONE (100 nM) it was 1.09 ± 0.14; with ABIRATERONE (500 nM), 1.01 ± 0.1; in the test with ABIRATERONE (1000 nM), 0.957 ± 0.11.

For the test system BT20 BREAST, the surviving fraction in the test with SOTRASTAURIN/AEB071 (0.5 nM) came to 1.12 ± 0.043; with SOTRASTAURIN/AEB071 (1 nM) it was 1.14 ± 0.11; with SOTRASTAURIN/AEB071 (5 nM) it was 1.19 ± 0.052; with SOTRASTAURIN/AEB071 (10 nM) it was 1.15 ± 0.024; in the test with SOTRASTAURIN/AEB071 (50 nM), 0.836 ± 0.013; in the test with SOTRASTAURIN/AEB071 (100 nM) it was 0.893 ± 0.15. The surviving fraction is 0.912 ± 0.029 with SOTRASTAURIN/AEB071 (500 nM); 0.972 ± 0.055 with SOTRASTAURIN/AEB071 (1000 nM); 1.17 ± 0.082 in the test with ABIRATERONE (0.5 nM); 1.04 ± 0.23 in the test with ABIRATERONE (1 nM); 1.22 ± 0.11 with ABIRATERONE (5 nM); 1.21 ± 0.2 in the test with ABIRATERONE (10 nM). In addition, the surviving fraction with ABIRATERONE (50 nM) was 1.12 ± 0.23; with ABIRATERONE (100 nM), 1.14 ± 0.15; with ABIRATERONE (500 nM) it was 1.13 ± 0.16; with ABIRATERONE (1000 nM), 1 ± 0.14.

As for LNCAP PROSTATE, the surviving fraction with SOTRASTAURIN/AEB071 (0.5 nM) was found to be 1.12 ± 0.11; with SOTRASTAURIN/AEB071 (1 nM) it was 1.05 ± 0.11; with SOTRASTAURIN/AEB071 (5 nM) it was 1.06 ± 0.052; in the test with SOTRASTAURIN/AEB071 (10 nM), 0.998 ± 0.087; with SOTRASTAURIN/AEB071 (50 nM) it was 1.22 ± 0.069; in the test with SOTRASTAURIN/AEB071 (100 nM) it was 1.16 ± 0.1. Besides, the surviving fraction with SOTRASTAURIN/AEB071 (500 nM) came to 1.23 ± 0.025; with SOTRASTAURIN/AEB071 (1000 nM), 1.18 ± 0.039; in the test with ABIRATERONE (0.5 nM), 0.875 ± 0.08; in the test with ABIRATERONE (1 nM), 0.996 ± 0.24; in the test with ABIRATERONE (5 nM), 0.92 ± 0.026; with ABIRATERONE (10 nM), 0.869 ± 0.11. In addition, the surviving fraction in the test with ABIRATERONE (50 nM) is 0.93 ± 0.1; with ABIRATERONE (100 nM), 0.976 ± 0.15; with ABIRATERONE (500 nM), 0.84 ± 0.12; in the test with ABIRATERONE (1000 nM), 0.791 ± 0.14.

Take HCC202 BREAST: the surviving fraction was 1.17 ± 0.19 in the test with SOTRASTAURIN/AEB071 (0.5 nM); 1.354 ± 0.0028 with SOTRASTAURIN/AEB071 (1 nM); 1.39 ± 0.86 in the test with SOTRASTAURIN/AEB071 (5 nM); 1.05 ± 0.41 with SOTRASTAURIN/AEB071 (10 nM); 0.774 ± 0.33 in the test with SOTRASTAURIN/AEB071 (50 nM); 0.88 ± 0.36 with SOTRASTAURIN/AEB071 (100 nM). For the same test system, the surviving fraction with SOTRASTAURIN/AEB071 (500 nM) turned out to be 1.19 ± 0.05; with SOTRASTAURIN/AEB071 (1000 nM), 1.123 ± 0.005; with ABIRATERONE (0.5 nM), 1.062 ± 0.0076; with ABIRATERONE (1 nM) it was 1.28 ± 0.2; with ABIRATERONE (5 nM), 1.16 ± 0.15; with ABIRATERONE (10 nM), 1.32 ± 0.44. Further, the surviving fraction with ABIRATERONE (50 nM) was determined as 1.27 ± 0.073; with ABIRATERONE (100 nM), 1.23 ± 0.031; with ABIRATERONE (500 nM) it was 0.991 ± 0.13; with ABIRATERONE (1000 nM), 0.86 ± 0.28.

On to SCC90 HEADNECK, for which the surviving fraction is 1.05 ± 0.063 with SOTRASTAURIN/AEB071 (0.5 nM); 0.997 ± 0.066 with SOTRASTAURIN/AEB071 (1 nM); 0.925 ± 0.099 with SOTRASTAURIN/AEB071 (5 nM); 1.01 ± 0.1 with SOTRASTAURIN/AEB071 (10 nM); 0.87 ± 0.037 with SOTRASTAURIN/AEB071 (50 nM); 0.875 ± 0.028 in the test with SOTRASTAURIN/AEB071 (100 nM). Further, the surviving fraction was determined as 0.708 ± 0.033 with SOTRASTAURIN/AEB071 (500 nM); 0.676 ± 0.072 in the test with SOTRASTAURIN/AEB071 (1000 nM); 1.26 ± 0.13 with ABIRATERONE (0.5 nM); 1.09 ± 0.15 with ABIRATERONE (1 nM); 1.25 ± 0.14 with ABIRATERONE (5 nM); 1.23 ± 0.18 with ABIRATERONE (10 nM). The surviving fraction with ABIRATERONE (50 nM) was determined as 1.21 ± 0.04; in the test with ABIRATERONE (100 nM), 1.28 ± 0.1; with ABIRATERONE (500 nM), 1.23 ± 0.11; with ABIRATERONE (1000 nM), 1.17 ± 0.062.

As to NY BONE, the surviving fraction in the test with SOTRASTAURIN/AEB071 (0.5 nM) is 0.99 ± 0.041; in the test with SOTRASTAURIN/AEB071 (1 nM), 0.971 ± 0.023; with SOTRASTAURIN/AEB071 (5 nM) it was 1.08 ± 0.002; in the test with SOTRASTAURIN/AEB071 (10 nM), 1.03 ± 0.048; in the test with SOTRASTAURIN/AEB071 (50 nM), 1.11 ± 0.022; with SOTRASTAURIN/AEB071 (100 nM), 1.09 ± 0.043. The surviving fraction with SOTRASTAURIN/AEB071 (500 nM) worked out at 1.07 ± 0.051; in the test with SOTRASTAURIN/AEB071 (1000 nM), 1.106 ± 0.0067; in the test with ABIRATERONE (0.5 nM), 1.05 ± 0.021; with ABIRATERONE (1 nM), 1.06 ± 0.029; in the test with ABIRATERONE (5 nM) it was 1.08 ± 0.034; in the test with ABIRATERONE (10 nM), 1.1 ± 0.059. In addition, the surviving fraction in the test with ABIRATERONE (50 nM) came to 1.105 ± 0.011; in the test with ABIRATERONE (100 nM), 1.09 ± 0.032; in the test with ABIRATERONE (500 nM), 1.08 ± 0.027; with ABIRATERONE (1000 nM), 1.06 ± 0.028.

For OSHN BONE, the surviving fraction with SOTRASTAURIN/AEB071 (0.5 nM) was 1.01 ± 0.049; with SOTRASTAURIN/AEB071 (1 nM) it was 0.989 ± 0.042; with SOTRASTAURIN/AEB071 (5 nM) it was 1.03 ± 0.044; with SOTRASTAURIN/AEB071 (10 nM) it was 1.02 ± 0.026; with SOTRASTAURIN/AEB071 (50 nM) it was 1.03 ± 0.021; in the test with SOTRASTAURIN/AEB071 (100 nM), 0.979 ± 0.01. The surviving fraction with SOTRASTAURIN/AEB071 (500 nM) was determined as 1 ± 0.0049; with SOTRASTAURIN/AEB071 (1000 nM) it was 0.998 ± 0.014; with ABIRATERONE (0.5 nM), 1.13 ± 0.021; with ABIRATERONE (1 nM) it was 1.102 ± 0.009; with ABIRATERONE (5 nM), 1.12 ± 0.022; with ABIRATERONE (10 nM), 1.09 ± 0.029. Further, the surviving fraction in the test with ABIRATERONE (50 nM) worked out at 1.13 ± 0.016; with ABIRATERONE (100 nM), 1.13 ± 0.031; in the test with ABIRATERONE (500 nM) it was 1.11 ± 0.017; with ABIRATERONE (1000 nM) it was 1.09 ± 0.024.
